# System: CD1 female mouse brain lipidome
# Test: Brain-region lipid levels (HPLC/MS/MS lipidomics) 2 h after single i.p. 3 mg/kg CP 55,940 vs vehicle
# Assay type: in vivo
# Settings: thalamus
# Protocol: The Bloomington Institutional Animal Care and Use Committee of Indiana University reviewed and approved the animal procedures. Female mice from the CD1 strain were utilized to match our study examining THC’s effects on the brain lipidome ([Leishman et al., 2018]). Mice were given a single i.p. injection of either 3 mg/kg CP or 1:1:18 cremophor:ethanol:saline vehicle (please refer to the section “3 mg/kg CP Is Relevant for Synthetic Cannabinoid Abuse and Has Stronger Effects on the Female Mouse Brain Lipidome During Adolescence” for a justification of dose and use of female mice). Three different age groups were given injections: PND 35 and PND 50 adolescents, and adult mice (PND 113). At least eight mice in each age group received CP and at least eight received vehicle. Matching the THC study time course ([Leishman et al., 2018]), mice were sacrificed via rapid decapitation 2 h after injection. Brains were immediately removed and flash-frozen in liquid nitrogen, and then stored at -80°C until dissections were performed. Brains were dissected on an ice-cold dissection plate into the following regions: STR, HIPP, CER, THAL, CTX, HYP, MID, and STEM. These abbreviations for these brain areas will be used exclusively when discussing the results generated by these specific dissections. Each dissected area was immediately placed in liquid nitrogen and then stored at -80°C until used for lipid extraction.
# Tissue extracts were performed as previously described ([Bradshaw et al., 2006]; [Stuart et al., 2013]; [Raboune et al., 2014]; [Leishman et al., 2016a],[b], [2017], [2018]). First, samples were shock frozen in liquid nitrogen, weighed, and transferred to a centrifuge tube. The mass of the largest sample was multiplied by 50 to determine how many milliliters of HPLC-grade methanol (Fisher, Fair Lawn, NJ, United States) to add. Then, samples were spiked with 500 pmol deuterium-labeled NAGly (d8NAGly; Cayman Chemical, Ann Arbor, MI, United States). Samples were placed on ice in darkness for 2 h then individually homogenized and centrifuged at 19,000 × g for 20 min at 20°C. Supernatants were diluted with HPLC water (purified in house) to make a solution of 75% water, 25% supernatant. Lipids were partially purified on C18 solid phase extraction columns (Agilent, Palo Alto, CA, United States). A series of four elutions with 1.5 mL of 60%, 75%, 85%, and 100% methanol were collected ([Stuart et al., 2013]; [Leishman et al., 2016a],[b], [2018]).
# As previously described ([Bradshaw et al., 2006]; [Tan et al., 2006]; [Smoum et al., 2010]; [Stuart et al., 2013]; [Tortoriello et al., 2013]; [Raboune et al., 2014]; [Leishman et al., 2016a],[b], [2017], [2018]), samples were analyzed using an Applied Biosystems API 3000 triple quadrupole mass spectrometer with electrospray ionization (Foster City, CA, United States). Using an Agilent XDB-C18 reversed phase analytical column and optimized mobile phase gradients, 20 μL from each elution were chromatographed. Two Shimadzu 10ADvp pumps (Columbia, MD, United States) provided the pressure for gradient elution. Mobile phase A: 20% methanol, 80% water (v/v) and 1 mM ammonium acetate (Sigma, St. Louis, MO, United States). Mobile phase B: 100% methanol, 1 mM ammonium acetate. Every method run began with 0% mobile phase B, reached 100% mobile phase B flowing at 0.2 mL/min, and gradually returned to 0% mobile phase B.
# This screening library will be referred to as the lipidome when discussing data from this study. HPLC/MS/MS data were analyzed using Analyst software (Applied Biosystems) ([Bradshaw et al., 2006]; [Tan et al., 2006]; [Stuart et al., 2013]; [Tortoriello et al., 2013]; [Raboune et al., 2014]; [Leishman et al., 2016a],[b], [2017], [2018]). Chromatograms (Supplementary Figure 3) were generated by determining the retention time of analytes from the analytical column with a [M-1] or [M+1] parent peak and a fragmentation peak corresponding to the programmed values. […]
# [1] = WT adult female mice, 3mg/kg CP 55,940
smiles,measurement,setting,value
"CCCCCCC(C)(C)c1ccc([C@@H]2C[C@H](O)CC[C@H]2CCCO)c(O)c1 [CP 55,940]","N-docosahexaenoyl ethanolamine level, Mean",[1],2.99E-11
same,"N-docosahexaenoyl glycine level, Mean",[1],1.3E-13
same,"N-docosahexaenoyl phenylalanine level, Mean",[1],4.66E-14
same,"N-linoleoyl GABA level, Mean",[1],7.91E-12
same,"N-linoleoyl alanine level, Mean",[1],5.44E-13
same,"N-linoleoyl ethanolamine level, Mean",[1],1.72E-11
same,"N-linoleoyl glycine level, Mean",[1],9.08E-14
same,"N-linoleoyl serine level, Mean",[1],4.53E-11
same,"N-oleoyl GABA level, Mean",[1],1.73E-11
same,"N-oleoyl alanine level, Mean",[1],2.34E-12
same,"N-oleoyl ethanolamine level, Mean",[1],1.6E-10
same,"N-oleoyl glycine level, Mean",[1],4.19E-13
same,"N-oleoyl leucine level, Mean",[1],7.81E-13
same,"N-oleoyl methionine level, Mean",[1],5.74E-13
same,"N-oleoyl phenylalanine level, Mean",[1],4.73E-13
same,"N-oleoyl serine level, Mean",[1],2E-10
same,"N-palmitoyl GABA level, Mean",[1],2.74E-11
same,"N-palmitoyl alanine level, Mean",[1],2.22E-12
same,"N-palmitoyl ethanolamine level, Mean",[1],6.49E-11
same,"N-palmitoyl glycine level, Mean",[1],2.5E-12
same,"N-palmitoyl leucine level, Mean",[1],2.46E-12
same,"N-palmitoyl methionine level, Mean",[1],3.82E-12
same,"N-palmitoyl phenylalanine level, Mean",[1],4.13E-13
same,"N-palmitoyl serine level, Mean",[1],1.13E-11
same,"N-palmitoyl tyrosine level, Mean",[1],3.42E-13
same,"N-palmitoyl valine level, Mean",[1],1.9E-13
same,"N-stearoyl GABA level, Mean",[1],1.7E-11
same,"N-stearoyl alanine level, Mean",[1],2.97E-12
same,"N-stearoyl ethanolamine level, Mean",[1],1.06E-11
same,"N-stearoyl glycine level, Mean",[1],1.83E-12
same,"N-stearoyl leucine level, Mean",[1],1.05E-12
same,"N-stearoyl methionine level, Mean",[1],4.98E-13
same,"N-stearoyl phenylalanine level, Mean",[1],2.37E-13
same,"N-stearoyl serine level, Mean",[1],2.33E-11
same,"N-stearoyl tyrosine level, Mean",[1],8.82E-14
same,"Oleic acid level, Mean",[1],4.55E-10
same,"PGE2 level, Mean",[1],1.93E-10
same,"PhosphoLEA level, Mean",[1],3.87E-12
same,2-arachidonoyl glycerol: Direction (relative to Veh),"adult, 3 mg/kg CP 55,940",↓
same,2-arachidonoyl glycerol: Magnitude (x Veh level),"adult, 3 mg/kg CP 55,940",0.81 x Veh level
same,2-linoleoyl glycerol: Direction (relative to Veh),"adult, 3 mg/kg CP 55,940",↓
same,2-linoleoyl glycerol: Magnitude (x Veh level),"adult, 3 mg/kg CP 55,940",0.77 x Veh level
same,6-ketoPGF1α: Direction (relative to Veh),"adult, 3 mg/kg CP 55,940",↑
same,6-ketoPGF1α: Magnitude (x Veh level),"adult, 3 mg/kg CP 55,940",1.23 x Veh level
same,Arachidonic acid: Direction (relative to Veh),"adult, 3 mg/kg CP 55,940",↓
same,Arachidonic acid: Magnitude (x Veh level),"adult, 3 mg/kg CP 55,940",0.83 x Veh level
same,N-arachidonoyl GABA: Direction (relative to Veh),"adult, 3 mg/kg CP 55,940",↓
same,N-arachidonoyl GABA: Magnitude (x Veh level),"adult, 3 mg/kg CP 55,940",0.80 x Veh level
same,N-arachidonoyl alanine: Direction (relative to Veh),"adult, 3 mg/kg CP 55,940",↓
same,N-arachidonoyl alanine: Magnitude (x Veh level),"adult, 3 mg/kg CP 55,940",0.63 x Veh level
same,N-arachidonoyl ethanolamine: Direction (relative to Veh),"adult, 3 mg/kg CP 55,940",↓
same,N-arachidonoyl ethanolamine: Magnitude (x Veh level),"adult, 3 mg/kg CP 55,940",0.81 x Veh level
same,N-arachidonoyl glycine: Direction (relative to Veh),"adult, 3 mg/kg CP 55,940",↓
same,N-arachidonoyl glycine: Magnitude (x Veh level),"adult, 3 mg/kg CP 55,940",0.63 x Veh level
same,N-oleoyl ethanolamine: Direction (relative to Veh),"adult, 3 mg/kg CP 55,940",↓
same,N-oleoyl ethanolamine: Magnitude (x Veh level),"adult, 3 mg/kg CP 55,940",0.79 x Veh level
same,N-palmitoyl GABA: Direction (relative to Veh),"adult, 3 mg/kg CP 55,940",↑
same,N-palmitoyl GABA: Magnitude (x Veh level),"adult, 3 mg/kg CP 55,940",1.13 x Veh level
same,N-palmitoyl ethanolamine: Direction (relative to Veh),"adult, 3 mg/kg CP 55,940",↓
same,N-palmitoyl ethanolamine: Magnitude (x Veh level),"adult, 3 mg/kg CP 55,940",0.86 x Veh level
same,N-palmitoyl leucine: Direction (relative to Veh),"adult, 3 mg/kg CP 55,940",↑
same,N-palmitoyl leucine: Magnitude (x Veh level),"adult, 3 mg/kg CP 55,940",1.36 x Veh level
same,N-palmitoyl methionine: Direction (relative to Veh),"adult, 3 mg/kg CP 55,940",↑
same,N-palmitoyl methionine: Magnitude (x Veh level),"adult, 3 mg/kg CP 55,940",1.25 x Veh level
same,N-palmitoyl valine: Direction (relative to Veh),"adult, 3 mg/kg CP 55,940",↑
same,N-palmitoyl valine: Magnitude (x Veh level),"adult, 3 mg/kg CP 55,940",1.95 x Veh level
same,Oleic acid: Direction (relative to Veh),"adult, 3 mg/kg CP 55,940",↓
same,Oleic acid: Magnitude (x Veh level),"adult, 3 mg/kg CP 55,940",0.78 x Veh level
same,2-linoleoyl glycerol Direction (relative to Veh),"PND 35, 3 mg/kg CP 55,940",↓
same,2-linoleoyl glycerol Magnitude (x Veh level),"PND 35, 3 mg/kg CP 55,940",0.79 x Veh level
same,6-ketoPGF1α Direction (relative to Veh),"PND 35, 3 mg/kg CP 55,940",↓
same,6-ketoPGF1α Magnitude (x Veh level),"PND 35, 3 mg/kg CP 55,940",0.77 x Veh level
same,N-arachidonoyl GABA Direction (relative to Veh),"PND 35, 3 mg/kg CP 55,940",↓
same,N-arachidonoyl GABA Magnitude (x Veh level),"PND 35, 3 mg/kg CP 55,940",0.72 x Veh level
same,N-arachidonoyl alanine Magnitude (x Veh level),"PND 35, 3 mg/kg CP 55,940",0.82 x Veh level
same,"N-arachidonoyl alanine, Direction (relative to Veh)","PND 35, 3 mg/kg CP 55,940",↓
same,"N-arachidonoyl ethanolamine, Direction (relative to Veh)","PND 35, 3 mg/kg CP 55,940",↑
same,"N-arachidonoyl ethanolamine, Magnitude (x Veh level)","PND 35, 3 mg/kg CP 55,940",1.21 x Veh level
same,N-arachidonoyl glycine Direction (relative to Veh),"PND 35, 3 mg/kg CP 55,940",↓
same,N-arachidonoyl glycine Magnitude (x Veh level),"PND 35, 3 mg/kg CP 55,940",0.86 x Veh level
same,"N-arachidonoyl phenylalanine, Direction (relative to Veh)","PND 35, 3 mg/kg CP 55,940",↑
same,"N-arachidonoyl phenylalanine, Magnitude (x Veh level)","PND 35, 3 mg/kg CP 55,940",1.20 x Veh level
same,N-arachidonoyl serine Direction (relative to Veh),"PND 35, 3 mg/kg CP 55,940",↓
same,N-arachidonoyl serine Magnitude (x Veh level),"PND 35, 3 mg/kg CP 55,940",0.81 x Veh level
same,N-arachidonoyl taurine Direction (relative to Veh),"PND 35, 3 mg/kg CP 55,940",↓
same,N-arachidonoyl taurine Magnitude (x Veh level),"PND 35, 3 mg/kg CP 55,940",0.87 x Veh level
same,N-docosahexaenoyl GABA Direction (relative to Veh),"PND 35, 3 mg/kg CP 55,940",↓
same,N-docosahexaenoyl GABA Magnitude (x Veh level),"PND 35, 3 mg/kg CP 55,940",0.71 x Veh level
same,N-docosahexaenoyl alanine Direction (relative to Veh),"PND 35, 3 mg/kg CP 55,940",↓
same,N-docosahexaenoyl alanine Magnitude (x Veh level),"PND 35, 3 mg/kg CP 55,940",0.69 x Veh level
same,N-docosahexaenoyl glycine Direction (relative to Veh),"PND 35, 3 mg/kg CP 55,940",↓
same,N-docosahexaenoyl glycine Magnitude (x Veh level),"PND 35, 3 mg/kg CP 55,940",0.85 x Veh level
same,N-docosahexaenoyl leucine Direction (relative to Veh),"PND 35, 3 mg/kg CP 55,940",↑
same,N-docosahexaenoyl leucine Magnitude (x Veh level),"PND 35, 3 mg/kg CP 55,940",1.78 x Veh level
same,N-docosahexaenoyl phenylalanine Direction (relative to Veh),"PND 35, 3 mg/kg CP 55,940",↑
same,N-docosahexaenoyl phenylalanine Magnitude (x Veh level),"PND 35, 3 mg/kg CP 55,940",1.25 x Veh level
same,"N-linoleoyl ethanolamine, Direction (relative to Veh)","PND 35, 3 mg/kg CP 55,940",↑
same,"N-linoleoyl ethanolamine, Magnitude (x Veh level)","PND 35, 3 mg/kg CP 55,940",1.29 x Veh level
same,N-oleoyl GABA Magnitude (x Veh level),"PND 35, 3 mg/kg CP 55,940",0.81 x Veh level
same,N-oleoyl GABA direction (relative to Veh),"PND 35, 3 mg/kg CP 55,940",↓
same,N-oleoyl alanine Magnitude (x Veh level),"PND 35, 3 mg/kg CP 55,940",0.84 x Veh level
same,N-oleoyl alanine direction (relative to Veh),"PND 35, 3 mg/kg CP 55,940",↓

# Reference: publication PMC6277767, “Broad and Region-Specific Impacts of the Synthetic Cannabinoid CP 55,940 in Adolescent and Adult Female Mouse Brains” (Frontiers in Molecular Neuroscience, 2018)
